Test [1] addresses wild-type human cardiac sodium channel, hNaV 1.5 (Peak INa) (Homo sapiens, UniProt Q14524). Nature of the test: Peak INa screening assay (tonic block and use-dependent block). It is filed as cell-based. Here is the method:
The assay uses an HEK293 (human embryonic kidney) cell line heterologously expressing the wild-type human cardiac sodium channel, hNaV 1.5, purchased from Millipore (Billerica, Mass.). No beta subunits were coexpressed with the Na channel alpha subunit. Cells are maintained with standard tissue culture procedures and stable channel expression is maintained with 400 μg/mL Geneticin in the culture medium. […] Currents are digitized at 25 kHz and low-pass filtered at 5 kHz and stored in the Sophion Bioscience Oracle database (Sophion Bioscience, Copenhagen, Denmark). Analysis is performed using QPatch Assay software and data are compiled in Excel 2010 (Microsoft, Seattle, Wash., U.S.A.). Compound stocks are routinely made by the Gilead Sample Bank in vials to 10 mM in dimethyl sulfoxide (DMSO). In some cases, when compounds are not soluble in DMSO, they are made in 100% ethanol. Stocks are sonicated as necessary. The extracellular solution for screening Late INa is composed of: 140 mM NaCl, 4 mM KCl, 1.8 mM CaCl2, 1 mM MgCl2, 10 mM HEPES and 10 mM Dextrose with pH adjusted to 7.35 using NaOH. The intracellular solution contains: 105 mM CsF, 20 mM CsCl, 10 NaF, 2 mM EGTA, 10 mM HEPES and 10 mM Dextrose with pH adjusted to 7.35 with CsOH. Compounds are diluted in extracellular solution using a MicroLab Nimbus (Hamilton Robotics, Reno, Nev.) to between 0.3 and 3 μM in glass vials and transferred to glass well plates before robotic addition to the cells. […] It is contemplated that the compounds of Formula I avoid significant block of peak INa. […] The intracellular solution used for the Peak INa assay is the same as outlined for the Late INa assay (see above). After establishing the whole cell recording configuration, channels were stimulated to open with low frequency (0.1 Hz) for so that the recording can be monitored and the extent to which the recording has stabilized can be assessed. The test compound is then applied at 1 or 3 μM was added 2 times at 60 second intervals. After the second compound addition, a 200 second wait period was imposed to allow for equilibration. Voltage protocols for TB and UDB are were performed in the absence and presence of compound and TB and UDB are calculated with respect to the compound free condition. Both TB and UDB were analyzed by incorporating rundown correction for the peak INa.

For test [2], the target named is hNaV1.1 (SCN1A) (Homo sapiens, UniProt P35498). Nature of the test: Use-dependent inhibition of the CNS NaV1.1 sodium channel. It counts as cell-based. Conditions: % inhibition, 25 Hz; for inhibition at 1 µM: use-dependent block at 1 uM, read-out: Nav1.1 UDB 25 Hz 1 uM; for inhibition at 10 µM: use-dependent block at 10 uM, read-out: Nav1.1 UDB 25 Hz 10 uM. The method in brief:
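Whole-cell automated patch clamp on HEK-293 cells stably expressing hNaV1.1, 23-25° C., CsF internal solution. Peak current at pulse 20 of a 25 Hz train (0 mV, 20 ms) from −120 mV, normalized to pulse 1; percentage inhibition versus compound-free condition.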

Setting [3] is: % inhibition, use-dependent block of peak INa at 3 uM, 3 Hz, pulse 50, read-out: Nav1.5 Peak UDB 3 Hz 3 uM.
Where [4] appears, read: read-out: Nav1.5 Peak TB 3 uM, % inhibition, tonic block of peak INa at 3 uM, 0.1 Hz, holding -100 mV.

Read-outs that look alike come from different tables or passages of the source.

Chain of wild-type human cardiac sodium channel, hNaV 1.5 (Peak INa) (Q14524 whole entry): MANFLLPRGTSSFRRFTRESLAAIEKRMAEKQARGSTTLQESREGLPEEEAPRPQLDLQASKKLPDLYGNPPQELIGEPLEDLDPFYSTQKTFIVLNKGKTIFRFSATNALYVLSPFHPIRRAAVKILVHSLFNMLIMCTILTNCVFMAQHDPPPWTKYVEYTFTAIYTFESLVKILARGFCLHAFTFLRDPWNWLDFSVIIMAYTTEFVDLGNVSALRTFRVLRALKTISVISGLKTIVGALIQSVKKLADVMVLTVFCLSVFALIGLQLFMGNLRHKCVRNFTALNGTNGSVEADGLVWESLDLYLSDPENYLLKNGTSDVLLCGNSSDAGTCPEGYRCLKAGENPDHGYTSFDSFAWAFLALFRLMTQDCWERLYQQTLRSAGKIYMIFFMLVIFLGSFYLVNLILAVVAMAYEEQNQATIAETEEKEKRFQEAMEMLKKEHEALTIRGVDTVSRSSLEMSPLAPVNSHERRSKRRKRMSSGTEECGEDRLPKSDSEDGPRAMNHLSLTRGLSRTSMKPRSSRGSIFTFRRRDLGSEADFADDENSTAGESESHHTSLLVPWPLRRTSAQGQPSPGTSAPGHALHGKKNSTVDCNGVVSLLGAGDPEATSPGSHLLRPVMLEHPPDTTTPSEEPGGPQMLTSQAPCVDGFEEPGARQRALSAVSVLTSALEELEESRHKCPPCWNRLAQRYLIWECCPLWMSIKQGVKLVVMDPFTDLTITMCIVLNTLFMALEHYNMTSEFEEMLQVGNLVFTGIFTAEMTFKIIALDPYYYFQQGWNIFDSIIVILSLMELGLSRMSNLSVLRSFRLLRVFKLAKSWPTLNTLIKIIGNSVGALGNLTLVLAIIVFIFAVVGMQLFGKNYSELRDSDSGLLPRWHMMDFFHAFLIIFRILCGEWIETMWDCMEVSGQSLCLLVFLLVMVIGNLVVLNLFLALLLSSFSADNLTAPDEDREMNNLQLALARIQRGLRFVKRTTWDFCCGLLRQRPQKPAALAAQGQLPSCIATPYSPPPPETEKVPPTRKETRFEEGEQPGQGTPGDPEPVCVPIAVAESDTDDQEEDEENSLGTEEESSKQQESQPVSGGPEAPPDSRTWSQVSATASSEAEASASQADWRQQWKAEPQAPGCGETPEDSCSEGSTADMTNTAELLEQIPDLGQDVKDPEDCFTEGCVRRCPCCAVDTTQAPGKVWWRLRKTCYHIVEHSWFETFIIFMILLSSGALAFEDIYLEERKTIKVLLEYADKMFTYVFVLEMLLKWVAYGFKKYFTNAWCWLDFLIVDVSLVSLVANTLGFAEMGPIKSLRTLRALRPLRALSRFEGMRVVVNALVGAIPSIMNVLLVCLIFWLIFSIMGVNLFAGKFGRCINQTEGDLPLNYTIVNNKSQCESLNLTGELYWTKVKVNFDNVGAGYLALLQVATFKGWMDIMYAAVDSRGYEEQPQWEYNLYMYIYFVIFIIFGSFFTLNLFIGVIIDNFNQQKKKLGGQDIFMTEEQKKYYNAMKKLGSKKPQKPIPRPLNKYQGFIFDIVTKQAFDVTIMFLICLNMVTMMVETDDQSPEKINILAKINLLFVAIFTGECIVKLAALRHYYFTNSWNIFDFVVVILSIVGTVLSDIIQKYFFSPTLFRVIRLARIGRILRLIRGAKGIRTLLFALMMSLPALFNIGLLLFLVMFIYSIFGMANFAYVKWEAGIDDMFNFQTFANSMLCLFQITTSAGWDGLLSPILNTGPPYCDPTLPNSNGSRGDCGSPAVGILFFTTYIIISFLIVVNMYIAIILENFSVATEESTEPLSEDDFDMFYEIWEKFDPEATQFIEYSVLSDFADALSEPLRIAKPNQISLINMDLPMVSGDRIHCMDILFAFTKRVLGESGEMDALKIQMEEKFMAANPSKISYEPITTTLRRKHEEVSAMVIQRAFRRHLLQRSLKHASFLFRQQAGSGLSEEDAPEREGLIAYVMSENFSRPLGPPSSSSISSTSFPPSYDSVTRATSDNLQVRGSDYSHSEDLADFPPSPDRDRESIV

Consider `Cc1csc(CN2Cc3cc(-c4ccc(OC(F)(F)F)c(C)c4)ccc3OC2=O)n1` [Example 54, 6-(3-methyl-4-(trifluoromethoxy)phenyl)-3-((4-methylthiazol-2-yl)methyl)-3,4-dihydro-2H-benzo[e][1,3]oxazin-2-one], for which the inhibition at 3 µM in test [1] (setting [3]) was < 5%. Further, in test [1] (setting [4]), the inhibition at 3 µM was 11.2%. In addition, in test [2], the inhibition at 1 µM is < 5% and the inhibition at 10 µM was found to be 36.7%.

Turning to `CCCOc1cc(C(F)(F)F)ccc1-c1ccc2c(c1)CN(CCc1ncccn1)C(=O)O2` [Example 19, 6-(2-propoxy-4-(trifluoromethyl)phenyl)-3-(2-(pyrimidin-2-yl)ethyl)-3,4-dihydro-2H-benzo[e][1,3]oxazin-2-one], the inhibition at 3 µM in test [1] (setting [3]) amounted to 9.6%. Besides, the inhibition at 3 µM in test [1] (setting [4]) was found to be 26.7%. Moreover, in test [2], the inhibition at 1 µM came out at 30.8% and the inhibition at 10 µM turned out to be 78.4%.

For the compound `CC(C)Oc1cc(C(F)(F)F)ccc1-c1ccc2c(c1)CN(Cc1ncccn1)C(=O)O2` [Example 25, 6-(2-isopropoxy-4-(trifluoromethyl)phenyl)-3-(pyrimidin-2-ylmethyl)-3,4-dihydro-2H-benzo[e][1,3]oxazin-2-one], the inhibition at 3 µM in test [1] (setting [3]) is < 5%; in test [1] (setting [4]) it was 29.7%. For the same compound, the inhibition at 1 µM in test [2] stood at 31.7%. The inhibition at 10 µM in test [2] amounted to 75.3%.

Regarding `Cc1ccnc(CN2Cc3cc(-c4ccc(OC(F)(F)F)cc4)ccc3OC2=O)n1` [Example 29, 3-((4-methylpyrimidin-2-yl)methyl)-6-(4-(trifluoromethoxy)phenyl)-3,4-dihydro-2H-benzo[e][1,3]oxazin-2-one], the inhibition at 3 µM in test [1] (setting [3]) came to 14.1%. Further, in test [1] (setting [4]), the inhibition at 3 µM was 36.1%. Besides, in test [2], the inhibition at 1 µM was found to be 44.7% and the inhibition at 10 µM amounted to 86.8%.

As for `Cc1csc(CN2Cc3cc(-c4ccc(OC(F)(F)F)cc4)ccc3OC2=O)n1` [Example 52, 3-((4-methylthiazol-2-yl)methyl)-6-(4-(trifluoromethoxy)phenyl)-3,4-dihydro-2H-benzo[e][1,3]oxazin-2-one], the values for the inhibition at 3 µM in test [1] (setting [3]) and in test [1] (setting [4]) were < 5% and 11.9%, respectively. Moreover, the inhibition at 1 µM in test [2] worked out at 32.9%. Besides, the inhibition at 10 µM in test [2] amounted to 57.6%.

For `COc1cc(C(F)(F)F)ccc1-c1ccc2c(c1)CN(Cc1ncccn1)C(=O)O2` [Example 34, 6-(2-methoxy-4-(trifluoromethyl)phenyl)-3-(pyrimidin-2-ylmethyl)-3,4-dihydro-2H-benzo[e][1,3]oxazin-2-one], the inhibition at 3 µM in test [1] (setting [3]) is < 5%. Further, the inhibition at 3 µM in test [1] (setting [4]) amounted to 27.7%. Besides, in test [2], the inhibition at 1 µM came to 26.9% and the inhibition at 10 µM turned out to be 76.1%.

Take `COc1cc(OC(F)(F)F)ccc1-c1ccc2c(c1)CN(CCc1ncccn1)C(=O)O2` [Example 18, 6-(2-methoxy-4-(trifluoromethoxy)phenyl)-3-(2-(pyrimidin-2-yl)ethyl)-3,4-dihydro-2H-benzo[e][1,3]oxazin-2-one]: the inhibition at 3 µM in test [1] (setting [3]) was < 5%. Further, the inhibition at 3 µM in test [1] (setting [4]) came out at 12.1%. In addition, in test [2], the inhibition at 1 µM is 16.9% and the inhibition at 10 µM turned out to be 73.4%.

For `Cc1cnc(CN2Cc3cc(-c4ccc(C(F)(F)F)cc4C)ccc3OC2=O)nc1` [Example 43, 6-(2-methyl-4-(trifluoromethyl)phenyl)-3-((5-methylpyrimidin-2-yl)methyl)-3,4-dihydro-2H-benzo[e][1,3]oxazin-2-one], the inhibition at 3 µM in test [1] (setting [3]) is < 5%. For the same compound, the inhibition at 3 µM in test [1] (setting [4]) amounted to 19.2%. Besides, in test [2], the inhibition at 1 µM is < 5% and the inhibition at 10 µM turned out to be 51.4%.

As for `Cc1cc(C(F)(F)F)ccc1-c1ccc2c(c1)CN(Cc1ncccn1)C(=O)O2` [Example 37, 6-(2-methyl-4-(trifluoromethyl)phenyl)-3-(pyrimidin-2-ylmethyl)-3,4-dihydro-2H-benzo[e][1,3]oxazin-2-one], the inhibition at 3 µM in test [1] (setting [3]) was < 5%. The inhibition at 3 µM in test [1] (setting [4]) is 14%. In test [2], the inhibition at 1 µM turned out to be 7.3% and the inhibition at 10 µM was determined as 67.7%.

As to `O=C1Oc2ccc(-c3ccc4c(c3)OC(F)(F)O4)cc2CN1Cc1ncccn1` [Example 26, 6-(2,2-difluorobenzo[d][1,3]dioxol-5-yl)-3-(pyrimidin-2-ylmethyl)-3,4-dihydro-2H-benzo[e][1,3]oxazin-2-one], the inhibition at 3 µM in test [1] (setting [3]) was < 5%. Also, the inhibition at 3 µM in test [1] (setting [4]) was determined as 20.7%. Also, in test [2], the inhibition at 1 µM is 14.8% and the inhibition at 10 µM is 66.1%.

Consider `COc1cc(C(F)(F)F)ccc1-c1ccc2c(c1)CN(Cc1ncc(C)cn1)C(=O)O2` [Example 42, 6-(2-methoxy-4-(trifluoromethyl)phenyl)-3-((5-methylpyrimidin-2-yl)methyl)-3,4-dihydro-2H-benzo[e][1,3]oxazin-2-one], for which, in test [1] (setting [3]), the inhibition at 3 µM is < 5%. Also, the inhibition at 3 µM in test [1] (setting [4]) amounted to 12.7%. In test [2], the inhibition at 1 µM was found to be 11.5% and the inhibition at 10 µM stood at 47.9%.

Consider `Cc1cccc(CN2Cc3cc(-c4ccc(C(F)(F)F)cc4F)ccc3OC2=O)n1` [Example 45, 6-(2-fluoro-4-(trifluoromethyl)phenyl)-3-((6-methylpyridin-2-yl)methyl)-3,4-dihydro-2H-benzo[e][1,3]oxazin-2-one], for which, in test [1] (setting [3]), the inhibition at 3 µM is < 5%. Further, the inhibition at 3 µM in test [1] (setting [4]) is 33.5%. In test [2], the inhibition at 1 µM was 19.9% and the inhibition at 10 µM was found to be 72.8%.

With `Cc1cnc(CN2Cc3cc(-c4ccc(OC(F)(F)F)cc4F)ccc3OC2=O)nc1` [Example 14, 6-(2-fluoro-4-(trifluoromethoxy)phenyl)-3-((5-methylpyrimidin-2-yl)methyl)-3,4-dihydro-2H-benzo[e][1,3]oxazin-2-one], the inhibition at 3 µM in test [1] (setting [3]) is < 5%. Also, in test [1] (setting [4]), the inhibition at 3 µM was found to be 24%. Further, in test [2], the inhibition at 1 µM is < 5% and the inhibition at 10 µM was 43.8%.

On to `O=C1Oc2ccc(-c3ccc(C(F)(F)F)cc3)cc2CN1CCc1ncccn1` [Example 17, 3-(2-(pyrimidin-2-yl)ethyl)-6-(4-(trifluoromethyl)phenyl)-3,4-dihydro-2H-benzo[e][1,3]oxazin-2-one], for which the inhibition at 3 µM in test [1] (setting [3]) was < 5%. Moreover, the inhibition at 3 µM in test [1] (setting [4]) stood at 12.9%. Also, in test [2], the inhibition at 1 µM was 34.8% and the inhibition at 10 µM is 60.9%.

As for `Cc1csc(CN2Cc3cc(-c4ccc(OC(F)(F)F)cc4F)ccc3OC2=O)n1` [Example 55, 6-(2-fluoro-4-(trifluoromethoxy)phenyl)-3-((4-methylthiazol-2-yl)methyl)-3,4-dihydro-2H-benzo[e][1,3]oxazin-2-one], the inhibition at 3 µM in test [1] (setting [3]) is < 5%. In addition, the inhibition at 3 µM in test [1] (setting [4]) was determined as 16.1%. Further, in test [2], the inhibition at 1 µM is < 5% and the inhibition at 10 µM is 55%.

As for `CC1c2cc(-c3cccc(OC(F)(F)F)c3)ccc2OC(=O)N1Cc1ncccn1` (stereo not shown) [Example 50, 4-methyl-3-(pyrimidin-2-ylmethyl)-6-(3-(trifluoromethoxy)phenyl)-3,4-dihydro-2H-benzo[e][1,3]oxazin-2-one], the inhibition at 3 µM in test [1] (setting [3]) is 12.1%. Moreover, in test [1] (setting [4]), the inhibition at 3 µM came to 17.7%. In addition, in test [2], the inhibition at 1 µM turned out to be 10.1% and the inhibition at 10 µM is 71.2%.

For the origin of these results see patent publication US9416128B2, “Fused heterocyclic compounds as ion channel modulators” (Gilead Sciences, Inc., priority 2013, dated 2016).
